Measured values published in patent US20100298141A1, “SUBSTITUTED PYRIDINE N-OXIDE HERBICIDES” (E. I. DU PONT DE NEMOURS AND COMPANY, priority 2007, published 2010).

Experiments:
Assay in all cases: Test F preemergence test
Details in all cases: scale 0 to 100
quackgrass = format: in vivo, Elytrigia repens
Source text: (§1) Seeds of plant species selected from bermudagrass (Cynodon dactylon), Surinam grass (Brachiaria decumbens), large crabgrass (Digitaria sanguinalis), green foxtail (Setaria viridis), goosegrass (Eleusine indica), johnsongrass (Sorghum halepense), kochia (Kochia scoparia), pitted morningglory (Ipomoea lacunosa), purple nutsedge (Cyperus rotundus), common ragweed (Ambrosia elation), mustard (Brassica nigra), guineagrass (Panicum maximum), […] (Paspalum dilatatum), barnyardgrass (Echinochloa crus-galli), southern sandbur (Cenchrus echinatus), common sowthistle (Sonchus oleraceous), prickly […] spinosa), Italian ryegrass (Lolium multiflorum), common purslane (Portulaca oleracea), broadleaf signalgrass (Brachiaria platyphylla), common groundsel (Senecio vulgaris), common chickweed (Stellaria media), Virginia dayflower (Commelina virginica), annual bluegrass (Poa annua), naked crabgrass (Digitaria nuda), […] cochinchinensis), quackgrass (Elytrigia repens), Canada horseweed (Conyza canadensis), field bindweed (Convolvulus arvensis), […] (Bidens bipinnata), common mallow (Malva sylvestris), Russian thistle (Salsola kali), and sugarcane (Saccharum officinarum) were planted and treated preemergence with test chemicals formulated in a non-phytotoxic solvent mixture which included a surfactant. At a different time, sugarcane was treated with postemergence applications of some of the test chemicals formulated in the same manner. Plants were approximately 3- to 4-leaf stage for the postemergence treatments. Treated plants and controls were maintained in a greenhouse for 14 to 21 days, after which time all species were compared to controls and visually evaluated. […] A dash (-) response means no test result.

common purslane = format: in vivo, Portulaca oleracea
Source text: as §1

prickly sida = format: in vivo, Sida spinosa
Source text: as §1

large crabgrass = format: in vivo, Digitaria sanguinalis
Source text: as §1

Surinam grass = format: in vivo, Brachiaria decumbens
Source text: as §1

johnsongrass = format: in vivo, Sorghum halepense
Source text: as §1

goosegrass = format: in vivo, Eleusine indica
Source text: as §1

guineagrass = format: in vivo, Panicum maximum
Source text: as §1

bermudagrass = format: in vivo, Cynodon dactylon
Source text: as §1

common groundsel = format: in vivo, Senecio vulgaris
Source text: as §1

Italian ryegrass = format: in vivo, Lolium multiflorum
Source text: as §1

kochia = format: in vivo, Kochia scoparia
Source text: as §1

purple nutsedge = format: in vivo, Cyperus rotundus
Source text: as §1

common ragweed = format: in vivo, Ambrosia elation
Source text: as §1

naked crabgrass = format: in vivo, Digitaria nuda
Source text: as §1

southern sandbur = format: in vivo, Cenchrus echinatus
Source text: as §1

Cn1nc(OC(F)F)c(CS(=O)(=O)c2cccc[n+]2[O-])c1C(F)(F)F [Compound 80]
Plant response rating, Quackgrass (quackgrass; 16 g ai/ha, preemergence): 10
Quackgrass plant response rating (quackgrass; 62 g ai/ha, Preemergence): 65
Quackgrass plant response rating (quackgrass; 125 g ai/ha, preemergence): 75
Plant response rating, Quackgrass (quackgrass; Preemergence, 31 g ai/ha): 65
Plant response rating, Purslane (common purslane; 16 g ai/ha, preemergence): 0
Purslane plant response rating (common purslane; 62 g ai/ha, Preemergence): 0
Purslane plant response rating (common purslane; 125 g ai/ha, preemergence): 0
Plant response rating, Purslane (common purslane; Preemergence, 31 g ai/ha): 0
Plant response rating, Prickly Sida (prickly sida; 16 g ai/ha, preemergence): 0
Prickly Sida plant response rating (prickly sida; 62 g ai/ha, Preemergence): 0
Prickly Sida plant response rating (prickly sida; 125 g ai/ha, preemergence): 20
Plant response rating, Prickly Sida (prickly sida; Preemergence, 31 g ai/ha): 0
Plant response rating, Crabgrass, Large (large crabgrass; 16 g ai/ha, preemergence): 40
Crabgrass, Large plant response rating (large crabgrass; 62 g ai/ha, Preemergence): 80
Crabgrass, Large plant response rating (large crabgrass; 125 g ai/ha, preemergence): 90
Plant response rating, Crabgrass, Large (large crabgrass; Preemergence, 31 g ai/ha): 80
Plant response rating, Surinam Grass (Surinam grass; 16 g ai/ha, preemergence): 0
Surinam Grass plant response rating (Surinam grass; 125 g ai/ha, preemergence): 100
Plant response rating, Surinam Grass (Surinam grass; Preemergence, 62 g ai/ha): 98
Plant response rating, Surinam Grass (Surinam grass; Preemergence, 31 g ai/ha): 80
Plant response rating, Johnsongrass (johnsongrass; 16 g ai/ha, preemergence): 50
Johnsongrass plant response rating (johnsongrass; 62 g ai/ha, Preemergence): 90
Johnsongrass plant response rating (johnsongrass; 125 g ai/ha, preemergence): 98
Plant response rating, Johnsongrass (johnsongrass; Preemergence, 31 g ai/ha): 75
Plant response rating, Goosegrass (goosegrass; 16 g ai/ha, preemergence): 80
Goosegrass plant response rating (goosegrass; 62 g ai/ha, Preemergence): 95
Goosegrass plant response rating (goosegrass; 125 g ai/ha, preemergence): 100
Plant response rating, Goosegrass (goosegrass; Preemergence, 31 g ai/ha): 85
Plant response rating, Guineagrass (guineagrass; 16 g ai/ha, preemergence): 75
Guineagrass plant response rating (guineagrass; 62 g ai/ha, Preemergence): 98
Guineagrass plant response rating (guineagrass; 125 g ai/ha, preemergence): 100
Plant response rating, Guineagrass (guineagrass; Preemergence, 31 g ai/ha): 98
Plant response rating, Bermudagrass (bermudagrass; 16 g ai/ha, preemergence): 50
Bermudagrass plant response rating (bermudagrass; 62 g ai/ha, Preemergence): 90
Bermudagrass plant response rating (bermudagrass; 125 g ai/ha, preemergence): 98
Plant response rating, Bermudagrass (bermudagrass; Preemergence, 31 g ai/ha): 80
Groundsel plant response rating (common groundsel; 62 g ai/ha, Preemergence): 0
Groundsel plant response rating (common groundsel; 125 g ai/ha, preemergence): 50
Plant response rating, Groundsel (common groundsel; Preemergence, 31 g ai/ha): 0
Plant response rating, Ryegrass, Italian (Italian ryegrass; 16 g ai/ha, preemergence): 15
Ryegrass, Italian plant response rating (Italian ryegrass; 125 g ai/ha, preemergence): 65
Plant response rating, Ryegrass, Italian (Italian ryegrass; Preemergence, 62 g ai/ha): 65
Plant response rating, Ryegrass, Italian (Italian ryegrass; Preemergence, 31 g ai/ha): 20
Plant response rating, Kochia (kochia; 16 g ai/ha, preemergence): 0
Kochia plant response rating (kochia; 62 g ai/ha, Preemergence): 35
Kochia plant response rating (kochia; 125 g ai/ha, preemergence): 90
Plant response rating, Kochia (kochia; Preemergence, 31 g ai/ha): 0
Plant response rating, Purple Nutsedge (purple nutsedge; 16 g ai/ha, preemergence): 0
Purple Nutsedge plant response rating (purple nutsedge; 62 g ai/ha, Preemergence): 50
Purple Nutsedge plant response rating (purple nutsedge; 125 g ai/ha, preemergence): 80
Plant response rating, Ragweed (common ragweed; 16 g ai/ha, preemergence): 0
Ragweed plant response rating (common ragweed; 125 g ai/ha, preemergence): 90
Plant response rating, Ragweed (common ragweed; Preemergence, 31 g ai/ha): 0
Plant response rating, Crabgrass, Naked (naked crabgrass; 16 g ai/ha, preemergence): 0
Crabgrass, Naked plant response rating (naked crabgrass; 62 g ai/ha, Preemergence): 90
Crabgrass, Naked plant response rating (naked crabgrass; 125 g ai/ha, preemergence): 100
Plant response rating, Crabgrass, Naked (naked crabgrass; Preemergence, 31 g ai/ha): 75
Plant response rating, Sandbur (southern sandbur; 16 g ai/ha, preemergence): 65
Sandbur plant response rating (southern sandbur; 125 g ai/ha, preemergence): 100
Plant response rating, Sandbur (southern sandbur; Preemergence, 62 g ai/ha): 95
Plant response rating, Sandbur (southern sandbur; Preemergence, 31 g ai/ha): 80
